Laboratory results from patent US11213583B2, “Methods and compositions for treating cancer and infectious diseases” (Cedars-Sinai Medical Center, priority 2014, dated 2022).

How the values were obtained:
[1] = test system: CD4+FoxP3+ lymphocytes / CTL function; assay: Treg depletion with diphtheria toxin in DEREG mice, in vivo CTL assay
RENCA tumor cells = conditions: Wang et al. Br J Cancer 2011; cited from earlier work
Pmel-1 lymphocytes = assay: Flow cytometry of adoptively transferred Thy1.1 Pmel-1 lymphocytes after DC vaccine and temsirolimus; conditions: with DC vaccine
CD8 lymphocytes (IFN-γ) = assay: Tumor-specific IFN-γ response of lymphocytes harvested on day 45, RENCA model; format: in vivo, mice; conditions: lymphocytes harvested day 45, restimulated with CA9 peptide
Method: (§1) (a) RENCA-CA9 tumor cells were implanted into Balb/C mice (n=5 per group) on day 0. CD4 lymphocytes were depleted with αCD4 antibody on days 6 and 10. Mice were treated with daily temsirolimus on days 14 to 34. Tumor growth was monitored. Results are representative of triplicate experiments. (b) In the same experiment, lymphocytes were harvested on day 45, restimulated with CA9 peptide, and stained for CD8 and IFNγ. (c) Following CD4 depletion, spleen, lymph node and blood were collected on days 0, 1, 10. Lymphocytes were stained for CD4, CD8 and FoxP3 and analyzed by flow cytometry. (c-e) The percentages of CD4 cells in the spleen, lymph node and blood on days 0, 1, and 10 following CD4 depletion are reported. (d) Following CD4 depletion, percentages of splenocytes that are CD4 or CD8 positive are reported, and percent of CD4 cells that are FoxP3 positive is reported. (e) In the same experiment, the absolute numbers of splenocytes positive for CD4, CD8, and CD4/FoxP3 are reported. *p<0.05, **p<0.01,***p<0.005.
In the same experiment, lymphocytes were harvested on day 45 and assessed for tumor-specific IFN-γ response (FIG. 2b). In tumor-bearing mice that received no treatment, there was no IFN-γ response. […] To characterize the CD4 lymphocyte depletion in response to αCD4, naïve mice were treated with a single dose of αCD4.

RENCA tumors = assay: RENCA tumor treatment model in Balb/c mice; format: in vivo; conditions: αCD4 days 6 and 10; temsirolimus daily days 14 to 34; no cancer vaccine
Method: as §1
Furthermore, the presence of tumor itself increased Tregs (FIG. 8). Therefore, we hypothesized that the antitumor immunity induced by mTOR inhibition can be further enhanced by targeting Tregs. Currently there is no clinical strategy to selectively remove Tregs; however, it is feasible to deplete all CD4 lymphocytes. However, CD4 effector cells are required for immune activation. […]

Molecule: diphtheria toxin [DT]
- CD4+FoxP3+ lymphocytes [1]: removed nearly all CD4+FoxP3+ lymphocytes

Molecule: CO[C@H]1C[C@@H]2CC[C@@H](C)[C@@](O)(O2)C(=O)C(=O)N2CCCC[C@H]2C(=O)O[C@H]([C@H](C)C[C@@H]2CC[C@@H](OC(=O)C(C)(CO)CO)[C@H](OC)C2)CC(=O)[C@H](C)/C=C(\C)[C@@H](O)[C@@H](OC)C(=O)[C@H](C)C[C@H](C)/C=C/C=C/C=C/1C [temsirolimus]
- growth of RENCA tumor cells in vitro (RENCA tumor cells): directly inhibit the growth of RENCA tumor cells in vitro
- Eomes expression in Pmel-1 lymphocytes (Pmel-1 lymphocytes): increased expression of Eomes
- Tbet expression in Pmel-1 lymphocytes (Pmel-1 lymphocytes): decrease in Tbet expression
- Tregs (Pmel-1 lymphocytes): increase in Tregs
- tumor-specific IFN-γ response (CD8 lymphocytes (IFN-γ)): some IFN-γ response
- RENCA tumor growth (RENCA tumors): effective in decreasing tumor growth
